Results from article PMC4180753, “Evaluation of Inhibitory Action of Novel Non β-Lactam Inhibitor against Klebsiella pneumoniae Carbapenemase (KPC-2)” (PLoS ONE, 2014).
Converted amounts (≈) assume the structure as drawn. Read-outs that look alike come from different tables or passages of the source.

Columns and labels:
[1] = test system: E. coli BL21 transformants harbouring bla KPC-2; assay: CLSM Live/Dead cell staining (PI/SYTO 9); assay type: cell-based, Escherichia coli; conditions: 4 hours
Experimental: The control was taken without any drug. The media was inoculated and incubated at 37^οC for 4 hours. The media was removed and dishes were gently washed with MOPS (pH 7.0) to wash off extra media. Cells were then stained with propidium iodide (PI) and SYTO 9 (1∶1) for one hour. The fluorescence emission was observed using confocal scanning laser microscope FluoView FV1000 (Olympus, Tokyo, Japan). The optimal excitation wavelengths were […] and the optimal emission wavelengths were 500 and 610 nm, respectively. The images were obtained from atleast three randomly picked positions. The images of the control and in presence of known as well as novel inhibitors were averaged and compared.

KPC-2 [2] = target: T1, KPC-2 (Klebsiella pneumoniae, UniProt Q9F663); assay: IC50 and Ki on purified KPC-2 (nitrocefin hydrolysis); assay type: biochemical; set-up: inferred from Ni-NTA purification and the pQE-2 vector) (N); made in house; host or cells: E. coli BL21 (DE3); conditions: for IC50: IC50, 1 nM purified KPC-2, 5 minutes pre-incubation, 30°C, pH 7.0, nitrocefin substrate (so in the source)
Experimental: The 50% inhibitory concentration (IC50) was defined as the concentration of the inhibitor that inhibited hydrolytic activity of the enzyme by 50%.
The inhibition constant, Ki, was calculated from the IC50 value by applying the Cheng-Prusoff correction

[3] = test system: Klebsiella pneumoniae NP6 (clinical strain, KPC-2); assay: microbe, parasite or virus in culture; assay type: cell-based
[4] = test system: E. coli BL21 transformed with recombinant bla KPC-2 (pQE2-KPC-2); assay: microbe, parasite or virus in culture; assay type: cell-based, Escherichia coli; conditions: for MIC of the carbapenem in combination with screened inhibitors (ZINC01807204 and ZINC02318494) / MIC: BL21 (pQE2-KPC-2); for MIC of the carbapenem in combination with screened inhibitors (ZINC01807204 and ZINC02318494) / reduction in MIC of the carbapenem in combination with screened compounds (ZINC01807204 and ZINC02318494): inhibitors 4 µg/ml; for MIC: inhibitors at fixed concentration of 4 µg/ml; for reduction in MIC of the carbapenem in combination with screened compounds (ZINC01807204 and ZINC02318494): KPC-2 expressing BL21 cells
Experimental: A carbapenem resistant clinical strain of K. pneumoniae (NP6), previously characterised in our lab was procured from Jawaharlal Nehru Medical College (JNMC), Aligarh. […] Escherichia coli (DH5α) and E. coli BL21 (DE3) were used for cloning and protein expression experiments respectively. Minimum inhibitory concentration (MIC) and Confocal Laser Scanning Microscopy (CLSM) experiments were conducted on E.coli (BL21) cells expressing recombinant KPC-2 β-lactamase.
(§1) The Minimum Inhibitory Concentrations (MIC) of recombinant BL21(DE3) cells harboring bla KPC-2 gene were determined by micro dilution method for different carbapenems alone and in combination with inhibitors (Clavulanic acid, Sulbactam, Tazobactam, ZINC01807204 and ZINC02318494) against BL21 control cells (cells with null vector). The recombinant E. coli cells were induced with IPTG prior to performing experiments. The antimicrobial agents, imipenem, meropenem, ertapenem, clavulanic acid, sulbactam and tazobactam were obtained from Sigma Aldrich (USA) and compounds ZINC01807204 and ZINC02318494 were procured from Vitas M (Netherlands). The inhibitors were taken at a fixed concentration of 4 µg/ml.

[5] = test system: Klebsiella pneumoniae MTCC 432; assay: MIC, susceptible MTCC strain; assay type: cell-based
[6] = test system: E. coli BL21 (Null plasmid); assay: microbe, parasite or virus in culture; assay type: cell-based; conditions: Escherichia coli, inhibitors at fixed concentration of 4 µg/ml
Experimental: as §1

[7] = Solubility observed in the inhibition assay; assay type: physicochemical; conditions: at higher concentrations; reason IC50 and Ki could not be determined
KPC-2 [8] = target: T1, KPC-2; conditions: nitrocefin as reporter substrate of KPC-2
[9] = sub-MIC meropenem in combination with the inhibitor (4 µg/ml)
[10] = MTCC432, MTCC 432, inhibitors at fixed concentration of 4µg/ml, read-out: MIC

T1 sequence (Q9F663 25-293 limits assumed): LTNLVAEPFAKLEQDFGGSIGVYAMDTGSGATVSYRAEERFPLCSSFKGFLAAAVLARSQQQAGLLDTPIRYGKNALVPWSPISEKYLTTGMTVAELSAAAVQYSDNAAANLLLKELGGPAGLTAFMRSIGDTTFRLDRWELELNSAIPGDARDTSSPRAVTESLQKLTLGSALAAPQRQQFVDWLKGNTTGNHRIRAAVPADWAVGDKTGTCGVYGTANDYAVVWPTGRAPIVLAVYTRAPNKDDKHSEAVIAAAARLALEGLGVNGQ

SMILES	Ki (KPC-2 [2])	IC50 (KPC-2 [2])	MIC [3]	MIC of the carbapenem in combination with screened inhibitors (ZINC01807204 and ZINC02318494) [4]	MIC [4]	MIC ([4]; Escherichia coli)	reduction in MIC of the carbapenem in combination with screened compounds (ZINC01807204 and ZINC02318494) [4]	MIC [6]	also measured
C[C@]1(Cn2ccnn2)[C@H](C(=O)O)N2C(=O)C[C@H]2S1(=O)=O [Tazobactam]	21.6 µM	98.8 µM							cells green with normal cell membranes [1, 9]: 60–70%
C[C@@H](O)[C@H]1C(=O)N2C(C(=O)O)=C(S[C@@H]3CN[C@H](C(=O)N(C)C)C3)[C@H](C)[C@H]12 [Meropenem, meropenem]			≥ 256 µg/mL	8 µg/mL	≥64 µg/mL	64 µg/mL	8 fold and eight fold	0.125 µg/mL	cells green with normal cell membranes ([1]; sub-MIC concentration of meropenem alone): 60–70%; MIC ([5]; MTCC432): 0.125 µg/mL (≈ 0.326 µM)
CC(C)[C@H](NS(=O)(=O)c1ccc2c(c1)Cc1cc(S(=O)(=O)N[C@H](C(=O)O)C(C)C)ccc1-2)C(=O)O [ZINC02318494]									solubility [7]: poor solubility at higher concentrations; cells binding PI and Syto 9 (yellowish orange, affected) [1, 9]: 90–95%
O=C(O)[C@H]1/C(=C/CO)O[C@@H]2CC(=O)N21 [Clavulanic acid]	30 µM	137 µM							
C[C@@H](O)[C@H]1C(=O)N2C(C(=O)O)=C(SCCN=CN)C[C@H]12 [Imipenem, imipenem]			≥ 256 µg/mL	16 µg/mL	≥64 µg/mL	64 µg/mL	four fold	0.25 µg/mL	MIC [5, 10]: 0.0625 µg/mL (≈ 0.209 µM)
C[C@@H](O)[C@H]1C(=O)N2C(C(=O)O)=C(S[C@@H]3CN[C@H](C(=O)Nc4cccc(C(=O)O)c4)C3)[C@H](C)[C@H]12 [Ertapenem, ertapenem]			≥ 256 µg/mL	16 µg/mL	≥128 µg/mL	128 µg/mL	8 fold	0.25 µg/mL	MIC [5, 10]: 0.0625 µg/mL (≈ 0.131 µM)
CC(=O)Nc1ccc(S(=O)(=O)Nc2ccccc2NS(=O)(=O)c2ccc(NC(C)=O)cc2)cc1 [ZINC01807204]	43.8 µM	200 µM							cells binding PI and Syto 9 (yellowish orange, affected) [1, 9]: 90–95%
O=C(Cc1cccs1)N[C@@H]1C(=O)N2C(C(=O)O)=C(/C=C/c3ccc([N+](=O)[O-])cc3[N+](=O)[O-])CS[C@H]12 [nitrocefin]									Km (KPC-2 [8]): 28 ± 6 µM
CC1(C)[C@H](C(=O)O)N2C(=O)C[C@H]2S1(=O)=O [Sulbactam]	23.2 µM	106 µM							
